Experimental data: US20210154372A1, “MEDICAL DEVICE WITH DRUG-ELUTING COATING AND INTERMEDIATE LAYER” (C.R. Bard, Inc., priority 2017, published 2021)
Values belong to the molecule of their own block, whether it stands above or below them.

Assays:
[1] = octanol/water; cited from earlier work
[2] = stability of additive with paclitaxel under ethylene oxide sterilization, heating and aging; conditions: reacted with paclitaxel
[3] = tested on: tissues at the target site; assay: drug absorption by tissue after 0.2-2 minute deployment of coated balloon; format: in vivo; conditions: coating with paclitaxel, after 0.2-2 minutes of deployment
[4] = BSA added; cited from earlier work
Serum albumin = conditions: cited from earlier work

Molecule: COc1ccc(O)c(C(C)(C)C)c1 [Butylated hydroxyanisole]
log P [1]: 1.31

Molecule: O=C(O)c1ccccc1 [benzoic acid]
stability under ethylene oxide sterilization, heating, and aging process [2]: not stable

Molecule: O=C1O[C@H](CO)[C@@H](O)[C@H](O)[C@H]1O [gluconolactone]
drug absorption by tissue [3]: unexpectedly high

Molecule: CC(=O)O[C@H]1C(=O)[C@@]2(C)[C@H]([C@H](OC(=O)c3ccccc3)[C@]3(O)C[C@H](OC(=O)[C@H](O)[C@@H](NC(=O)c4ccccc4)c4ccccc4)C(C)=C1C3(C)C)[C@]1(OC(C)=O)CO[C@@H]1C[C@@H]2O [paclitaxel]
increase of solubility in PBS with the addition of BSA [4]: over 20 fold

Molecule: CO[C@H]1C[C@@H]2CC[C@@H](C)[C@@](O)(O2)C(=O)C(=O)N2CCCC[C@H]2C(=O)O[C@H]([C@H](C)C[C@@H]2CC[C@@H](O)[C@H](OC)C2)CC(=O)[C@H](C)/C=C(\C)[C@@H](O)[C@@H](OC)C(=O)[C@H](C)C[C@H](C)/C=C/C=C/C=C/1C [rapamycin]
protein bound (Serum albumin): 92%
share of protein binding that is to albumin (Serum albumin; primarily to albumin): 97%

drug absorption by tissue [3]: unexpectedly high
Molecule: O=C1O[C@H](CO)[C@@H](O)[C@H]1O [ribonic acid lactone]

Molecule: OC[C@@H](O)[C@@H](O)[C@H](O)[C@@H](O)CO [sorbitol]
log P [1]: −4.67

Molecule: PEG-20 sorbitan monolaurate [Tween 20]
log P [1]: about 3.0
